Data from publication PMC9174720, “Evaluation of antioxidant and cytotoxic properties of phenolic N-acylhydrazones: structure–activity relationship” (Royal Society Open Science, 2022).
Like-named read-outs stand apart in the source and are kept apart here.

Legend:
[1] = DPPH radical scavenging assay; type: biochemical; conditions: for IC50: DPPH 0.05 mM in methanol, incubated 20 and 60 min, absorbance at 517 nm, mean ± s.d. of three measurements, read-out: IC50 for inactivation of DPPH free radical; for stoichiometric factor (SF): SF=[DPPH]/(2×IC50), good antioxidant if SF ≥ 2
Experimental: The antioxidant screening of all PheNAHs was performed using the 2,2-diphenyl-1-picrylhydrazyl (DPPH) method. The solution of DPPH radical in methanol (0.05 mM, 1 ml) was mixed with the tested compound (20 µl of different concentrations in dimethyl sulfoxide (DMSO) and 980 µl of methanol). The reaction mixture was incubated in the dark at room temperature for 20 and 60 min after which the absorbance of the sample was measured spectrophotometrically at 517 nm. All measurements were performed in triplicate. Methanol was used as a control solution, whereas quercetin and nordihydroguaiaretic acid (NDGA) were used as reference compounds. […] IC50 is defined as the minimal concentration of tested compound required for reaching 50% of a maximum scavenging capacity. The results were presented as mean values ± standard deviation (s.d.) of three independent measurements. The stoichiometric factor (SF) was calculated for all compounds using the equation [45, 46]:1 SF=[DPPH]/(2×IC50)

HCT-116 = experiment: MTT cytotoxicity assay on HCT-116 cells; type: cell-based, human; conditions: for IC50: Homo sapiens, HCT-116 cell line, read-out: Growth inhibitory effects IC50; for selectivity index (SI): ratio of IC50 values of MRC-5 and HCT-116, values greater than 1 indicate selectivity toward cancer cell line
Experimental: (§1) In this in vitro study, we investigated the influence of PheNAHs on two model systems: human colorectal carcinoma HCT-116 and human healthy fibroblast cell line MRC-5. Both cell lines of low passages were purchased from the European collection of authenticated cell cultures (ECACC) and were cultivated in Dulbecco's Modified Eagle Medium (DMEM) (Sigma, D5796) cell culture medium supplemented with 10% foetal bovine serum (Sigma, F4135-500 ML) and 1% penicillin/streptomycin (Sigma, P4333-100 ML) in 75 cm^2 culture flasks. The cells were maintained according to the standardized procedure in the incubator with humidified atmosphere supplemented with 5% CO2 at a physiological temperature of 37°C, and after a few passages and a confluence of about 80%, the cells were used in all in vitro experiments (Laboratory for Bioengineering protocol CB-003).
(§2) The ability of synthesized compounds to inhibit the growth of two different cell lines was estimated by a standardized 3-(4,5-dimethylthiazol-2-yl)-2,5-diphenyltetrazolium bromide (MTT) assay (Laboratory for Bioengineering protocol CB-005). The approximative number of 10 000 cells per well (in 96-well microplates) were seeded and kept in the incubator for 24 h to enable cell adhesion. After the incubation period, the cells were treated with investigated compounds in the concentration range from 0,1 to 500 µM dissolved in DMEM. Cytotoxic effect was evaluated 24 and 72 h from treatment by following the number of survived cells, thus the cell viability. MTT assay is based on spectrophotometric measurement of reduction rate of 3-(4,5-dimethylthiazol-2-yl)-2,5-diphenyltetrazolium bromide (MTT, Acros Organics, 158990010) to purple formazan crystals subsequently dissolved in DMSO (Fisher Chemical, D/4121/PB15) on a microplate reader (Rayto 2100C) at 550 nm. The percentage of the survived (viable) cells was estimated by dividing the absorbance of the treatment with the absorbance of the control (non-treated) cells and multiplied by 100 [47]. As positive controls, Leucovorin and Irinotecan were selected as compounds used in colon cancer treatment.
(§3) Biological activity was the result of two individual experiments, performed in triplicate for each dose. Statistical analyses were determined using the one-way analysis of variance (ANOVA) test for multiple comparisons, SPSS (Chicago, IL) statistical software package (SPSS for Windows, v. 17, 2008). The IC50 values were calculated from the dose curves by a computer program (CalcuSyn). IC50 values represent the half-maximal inhibitory concentration of tested compounds to measure the influence in inhibition of cell growth for 50%. […] At the beginning of the process of selecting the anti-cancer drug candidate, it is necessary to make a rough preselection between the tested substances. In vitro analysis on cancer and healthy cell lines is quantified in different ways, selectivity also. The selectivity index (SI) of tested drugs usually refers to the simple ratio of IC50 values determined for cancer and healthy cells. Also, the SI can be used for the expression of many other examples, such as SI between antibacterial and antiviral effect, discrimination of the drugs effect between many cancer cell lines, etc. In our experimentation, the values greater than ‘1’ indicate selectivity of the tested substance toward cancer cell line.

MRC-5 = experiment: MTT cytotoxicity assay on MRC-5 cells; type: cell-based; conditions: Homo sapiens, MRC5, MRC-5 cell line, read-out: Growth inhibitory effects IC50
Experimental: as §1, §2, §3

Row | Structure (SMILES) | IC50 [1] | stoichiometric factor (SF) [1] | IC50 (HCT-116; 24 h exposure) | IC50 (HCT-116; 72 h exposure) | IC50 (MRC-5; 24 h exposure) | IC50 (MRC-5; 72 h exposure) | selectivity index (SI) (HCT-116; after 72 h exposure) | selectivity index (SI) (HCT-116; after 24 h exposure) | cytotoxic effect in words (from IC50 values) (HCT-116; MTT, 24 and 72 h exposure, 0,1 to 500 µM)
1 | O=C(N/N=C/c1ccc(O)c(O)c1)c1ccc(O)cc1 [3h] | 2.5 ± 0.1 µM | 5 | > 500 µM | 107 µM | > 500 µM | > 500 µM | – | – | –
2 | COc1cc(/C=N/NC(=O)c2ccccc2)cc(OC)c1O [1f] | 17.2 ± 1.1 µM | 0.7 | > 500 µM | > 500 µM | > 500 µM | > 500 µM | – | – | –
3 | COc1cc(C(=O)N/N=C/c2ccccc2)ccc1O [4a] | > 100 µM | – | > 500 µM | > 500 µM | > 500 µM | > 500 µM | – | – | –
4 | COc1cccc(/C=N/NC(=O)c2ccccc2O)c1O [2d] | > 100 µM | – | 80.5 µM | 26.2 µM | 37.9 µM | 87.3 µM | 3.3 | – | –
5 | O=C(N/N=C/c1ccccc1O)c1ccccc1 [1b] | > 100 µM | – | 249 µM | 139 µM | > 500 µM | > 500 µM | >3.59 | >2.01 | –
6 | Nc1nc2c(c(=O)[nH]1)N(C=O)C(CNc1ccc(C(=O)N[C@@H](CCC(=O)O)C(=O)O)cc1)CN2 (stereo partly drawn) [leucovorin, Leucovorin, reference compound] | – | – | > 500 µM | > 500 µM | > 500 µM | 180 µM | <0.36 | – | no effect
7 | COc1cc(C(=O)N/N=C/c2cc(OC)c(O)c(OC)c2)ccc1O [4f] | 6.3 ± 0.3 µM | 2 | > 500 µM | > 500 µM | > 500 µM | > 500 µM | – | – | –
8 | O=C(N/N=C/c1ccc(O)c(O)c1)c1ccccc1O [2h] | 1.6 µM | 7.8 | > 500 µM | 208 µM | > 500 µM | > 500 µM | – | – | –
9 | O=C(N/N=C/c1ccccc1O)c1cc(O)c(O)c(O)c1 [5b] | 1.2 ± 0.1 µM | 10.4 | 62.6 µM | 32.4 µM | 104 µM | 52.1 µM | 1.61 | 1.67 | –
10 | COc1cc(C(=O)N/N=C/c2ccc(O)cc2O)ccc1O [4g] | > 100 µM | – | 194 µM | > 500 µM | > 500 µM | 307 µM | – | – | –
11 | O=C(N/N=C/c1ccc(O)c(O)c1)c1cc(O)c(O)c(O)c1 [5h] | 0.7 ± 0.1 µM | 17.9 | > 500 µM | 58.8 µM | > 500 µM | 50.6 µM | 0.86 | – | –
12 | COc1cccc(/C=N/NC(=O)c2ccccc2)c1O [1d] | > 100 µM | – | > 500 µM | 66.6 µM | > 500 µM | 306 µM | 4.6 | – | –
13 | CC(Cc1ccc(O)c(O)c1)C(C)Cc1ccc(O)c(O)c1 (stereo not drawn) [NDGA, nordihydroguaiaretic acid, reference compound] | 1.7 ± 0.1 µM | 7.4 | – | – | – | – | – | – | –
14 | O=c1c(O)c(-c2ccc(O)c(O)c2)oc2cc(O)cc(O)c12 [Quercetin, quercetin, reference compound] | 1.9 ± 0.1 µM | 6.6 | – | – | – | – | – | – | –
